Values quoted from earlier work as cited in patent US12527813B2, “Methods to stabilize and reverse atherosclerotic lesions by sulfated polysaccharides” (Calroy Health Sciences, LLC, priority 2017, dated 2026).

Tested on: lipid-rich necrotic core
Conditions: 24 months

Compound: CC(C)c1nc(N(C)S(C)(=O)=O)nc(-c2ccc(F)cc2)c1/C=C/[C@@H](O)C[C@@H](O)CC(=O)O [rosuvastation]
- lipid-rich necrotic core reduced, low dose (5 mg/day): 27%
- lumen size and artery stenosis change: virtually no change
- lipid-rich necrotic core reduced, all patients (33 patients, low or high dose): about 25%
- lipid-rich necrotic core reduced, high dose (40/80 mg/day): 19%
